According to PMC9455918, “Quinolizidines as Novel SARS-CoV-2 Entry Inhibitors” (International Journal of Molecular Sciences, 2022):
Like-named read-outs stand apart in the source and are kept apart here.

Key:
HIV-1NL4-3-nanoluc-sec [1] = details: previously described; ref [19],[20],[21],[22]; cited from earlier work
in vitro = format: cell-based; details: human; concentration that reduced viability of 293T-ACE2 cells by 50%; 3 days
Experimental: The CellTiter-Glo® Luminescent Cell Viability Assay (Promega, Cat. # G7570 ) was used to determine the cytotoxicity of the aloperine derivatives. 293T-ACE2 cells were cultured in the presence of various concentrations of the compounds for 3 days. The cytotoxicity of the compounds was determined by following the protocol provided by the manufacturer. The 50% cytotoxic concentration (CC50) was defined as the concentration that caused a 50% reduction in cell viability.

[2] = tested on: PA/Puerto Rico/8/1934 Influenza A Virus (PR8); details: cited from earlier work
cathepsin B = biological target: T1, cathepsin B (Homo sapiens, UniProt P07858); assay: Cathepsin B inhibitor assay kit (BPS bioscience); format: biochemical; details: for Inhibitory activity against cathepsin B: tested at 20 µM, duplicated experiment
T1 construct: purchased BPS bioscience 79590

cathepsin L = biological target: T2, cathepsin L (Homo sapiens, UniProt P07711); assay: Cathepsin L inhibitor assay kit (BPS bioscience); format: biochemical; details: tested at 20 µM, duplicated experiment
T2 construct: purchased BPS bioscience

[3] = tested on: D614G spike-pseudotyped virus in 293T-ACE2 cells; format: cell-based; details: 5 µM, 2 h infection with D614G spike-pseudotyped virus
[4] = tested on: Omicron BA.2 spike-pseudotyped virus; assay: microbe, parasite or virus in culture; format: cell-based; details: 293T-ACE2 cells
[5] = tested on: Delta spike-pseudotyped virus; assay: microbe, parasite or virus in culture; format: cell-based; details: 293T-ACE2 cells
[6] = tested on: Omicron BA.4/BA.5 spike-pseudotyped virus; assay: microbe, parasite or virus in culture; format: cell-based; details: 293T-ACE2 cells
[7] = tested on: murine leukemia virus envelope (MLV-env) pseudotyped virus; assay: microbe, parasite or virus in culture; format: cell-based; details: spike protein replaced with MLV-env, marked ** in Table 1
[8] = tested on: PA/Puerto Rico/8/1934 Influenza A Virus (PR8); assay: microbe, parasite or virus in culture; format: cell-based; details: new compound 9, no reference given
HIV-1NL4-3-nanoluc-sec [9] = format: cell-based; details: new compound 9, no reference given; Inac = CC50/IC50 ratio < 5
[10] = Severe acute respiratory syndrome coronavirus 2

T2 sequence (P07711 114-333): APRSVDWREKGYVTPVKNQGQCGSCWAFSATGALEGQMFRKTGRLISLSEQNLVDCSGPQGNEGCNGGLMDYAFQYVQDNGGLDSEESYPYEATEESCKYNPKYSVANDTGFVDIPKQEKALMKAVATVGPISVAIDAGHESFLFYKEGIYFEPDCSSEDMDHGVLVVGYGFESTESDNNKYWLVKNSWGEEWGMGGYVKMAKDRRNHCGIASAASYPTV

| Compound | IC50 (HIV-1NL4-3-nanoluc-sec [1]) [µM] | CC50 (in vitro) [µM] | IC50 [2] [µM] | also measured |
| --- | --- | --- | --- | --- |
| C1=C2CCCN[C@H]2[C@@H]2C[C@H]1[C@H]1CCCCN1C2 [Aloperine, aloperine, reference compound] | 1.75 | > 20 | 14.5 | Inhibitory activity against cathepsin B (cathepsin B): inactive; Inhibitory activity against cathepsin L (cathepsin L): inactive |
| CCN(CC)CCCC(C)Nc1ccnc2cc(Cl)ccc12 (centres unmarked) [Chloroquine diphosphate, reference compound] | – | – | – | Spike protein (virus) puncta in 293T-ACE2 cells under confocal microscope [3]: no accumulation of viral puncta |
| O=C(NCCCCCCN1CCCC2CC3CC(CN4CCCCC34)C21)c1c(F)cc(Br)cc1F (centres unmarked) [Compound 1] | > 20 | > 20 | 0.091 | – |
| O=C(NCCN1CCCC2=CC3CC(CN4CCCCC34)C21)c1ccccc1F (centres unmarked) [Compound 2] | > 25 | – | 5.5 | – |
| O=C(Cc1ccc(S(=O)(=O)C(F)(F)F)cc1)NCCCCN1CCCC2=CC3CC(CN4CCCCC34)C21 (centres unmarked) [Compound 3] | 0.12 | > 20 | > 20 | IC50, PA/Puerto Rico/8/1934 Influenza A Virus (PR8) [2]: without anti-influenza virus activity |
| C1=C2CCCN(CCCCCNCc3ccccc3)C2C2CC1C1CCCCN1C2 (centres unmarked) [Compound 4] | 0.84 | > 20 | > 40 | – |
| C1=C2CCCN(CCCCNCc3ccccc3)C2C2CC1C1CCCCN1C2 (centres unmarked) [Compound 5] | 0.96 | > 20 | > 40 | IC50 [4, 10]: 0.83 ± 0.21 µM; IC50 [5, 10]: 0.58 ± 0.15 µM; IC50 [6, 10]: 0.86 ± 0.25 µM; IC50 ([7]; Murine leukemia virus, read-out: Antiviral activity (IC50) against MLV-env pseudotyped virus): > 20 µM; Antiviral activity (IC50) against MLV-env pseudotyped virus [7]: inactive; IC50, PA/Puerto Rico/8/1934 Influenza A Virus (PR8) [2]: ineffective; Inhibitory activity against cathepsin B (cathepsin B): totally inactive; Inhibitory activity against cathepsin B (cathepsin B; listed as compound 5): did not inhibit; Inhibitory activity against cathepsin L (cathepsin L): totally inactive; Inhibitory activity against cathepsin L (cathepsin L; listed as compound 5): did not inhibit; Spike protein (virus) puncta in 293T-ACE2 cells under confocal microscope [3]: observed as puncta |
| COc1ccc(C(=O)NCCCCN2CCCC3=CC4CC(CN5CCCCC45)C32)cc1 (centres unmarked) [Compound 6] | 11.4 | > 20 | > 20 | – |
| CC(C)(C)c1ccc(C(=O)NCCCCCCN2CCCC3=CC4CC(CN5CCCCC45)C32)cc1 (centres unmarked) [Compound 7] | 0.8 | > 20 | 0.83 | – |
| O=C(NCCCCCCCC(=O)N1CCCC2=CC3CC(CN4CCCCC34)C21)c1ccc(OC(F)(F)F)cc1 (centres unmarked) [Compound 8] | > 20 | > 20 | > 28.5 | IC50, HIV-1NL4-3-nanoluc-sec (HIV-1NL4-3-nanoluc-sec [1]): inactive; IC50, PA/Puerto Rico/8/1934 Influenza A Virus (PR8) [2]: inactive |
| Fc1ccc(CNCCCCN2CCCC3=CC4CC(CN5CCCCC45)C32)cc1 (centres unmarked) [Compound 9] | – | > 10 | – | IC50 [8]: 4.8 ± 1.4 µM; IC50, HIV-1NL4-3-nanoluc-sec (HIV-1NL4-3-nanoluc-sec [9]): Inac ^8 |
| CC(C)C[C@H](NC(=O)[C@H]1O[C@@H]1C(=O)O)C(=O)NCCCCN=C(N)N [Compound E64, E64, reference compound] | – | – | – | Inhibition of enzyme activity (cathepsin B) (cathepsin B; at 0.1 µM): more than 95% |
| CCOC(=O)[C@H]1O[C@@H]1C(=O)N[C@@H](CC(C)C)C(=O)NCCC(C)C [Compound E64D, E64D, reference compound] | – | – | – | IC50 [4]: 0.37 ± 0.066 µM; IC50 [5]: 0.45 ± 0.082 µM; IC50 [6]: 0.34 ± 0.081 µM |
